This is an account of results in patent US20170326125A1, “MULTISUBSTITUTED AROMATIC COMPOUNDS AS INHIBITORS OF THROMBIN” (VERSEON CORPORATION, priority 2016, published 2017).

The target in the experiment is T1, Human thrombin (Homo sapiens, UniProt P00734).
T1 construct: purchased Haematologic Technologies Inc
Description: Inhibition of the protease activity of thrombin (chromogenic substrate S-2238). The class given is biochemical. The note with it: inhibition of the protease activity of thrombin; class symbols a/b/c. As for the experimental part: Compounds described herein can be assayed, by a variety of methods known in the art and described herein, for inhibition of biological activity, e.g., protease activity, of a variety of proteins, e.g., thrombin.
The thrombin activity reported herein (e.g., Table A) was obtained as follows. Human thrombin was obtained from Haematologic Technologies Inc. The chromogenic
Thrombin was assayed in buffer containing 0.05 M Tris (pH 7.4), 0.015 M NaCl and 0.01% PEG-8000. The final concentration of enzyme used was 3 nM thrombin. […] All assays were performed in 96-well microtiter plates at room temperature (RT). […] Inhibitor IC50 values were determined by adding test compound as ten point, three-fold serial dilutions in buffer solution, as known in the art. The plate was read at 10 minutes after substrate addition. The IC50 was calculated by plotting the percent (%) inhibition against compound concentration and fitting the data to a constrained four parameter sigmoidal curve, as known in the art.

Each structure is given as a SMILES string.

For `CCCC(=O)n1nc(-c2ccncc2)nc1NCc1ccc(F)cc1` [Cmpd 80, 1-(5-[(4-fluorophenyl)methyl]amino-3-(pyridin-4-yl)-1H-1,2,4-triazol-1-yl)butan-1-one], the IC50 is under 100 nM.

In turn, `CCC(=O)n1nc(-c2ccncc2)nc1NCc1ccc(F)cc1` [Cmpd 81, 1-(5-[(4-fluorophenyl)methyl]amino-3-(pyridin-4-yl)-1H-1,2,4-triazol-1-yl)propan-1-one] registered an IC50 of under 100 nM. Next, `CC(C)(C)C(=O)n1nc(-c2cccs2)nc1NCc1ccc(F)cc1` [Cmpd 82, 1-(5-[(4-fluorophenyl)methyl]amino-3-(thiophen-2-yl)-1H-1,2,4-triazol-1-yl)-2,2-dimethylpropan-1-one]: under 100 nM; `CCC(=O)n1nc(-c2cccs2)nc1NCc1ccc(F)cc1` [Cmpd 83, 1-(5-[(4-fluorophenyl)methyl]amino-3-(thiophen-2-yl)-1H-1,2,4-triazol-1-yl)propan-1-one]: 100 to 1000 nM. Next, `CCC(=O)n1nc(-c2ccccc2)cc1NCc1ccc(F)cc1` [Cmpd 84, 1-(5-[(4-fluorophenyl)methyl]amino-3-phenyl-1H-pyrazol-1-yl)propan-1-one]: over 1000 nM; `CCC(=O)n1nc(-c2ccccc2)c(C)c1NCc1ccc(F)cc1` [Cmpd 85, 1-(5-[(4-fluorophenyl)methyl]amino-4-methyl-3-phenyl-1H-pyrazol-1-yl)propan-1-one]: over 1000 nM; `CCC(=O)n1nc(-c2cccnc2)nc1SCc1ccc(F)cc1` [Cmpd 86, 1-(5-[(4-fluorophenyl)methyl]sulfanyl-3-(pyridin-3-yl)-1H-1,2,4-triazol-1-yl)propan-1-one]: under 100 nM. The value for `COc1ccc(CNc2nc(-c3ccccn3)nn2C(=O)C(C)C)cc1` [Cmpd 88, 1-(5-[(4-methoxyphenyl)methyl]amino-3-(pyridin-2-yl)-1H-1,2,4-triazol-1-yl)-2-methylpropan-1-one] was under 100 nM; that for `COc1ccc(CNc2nc(-c3ccccn3)nn2C(=O)Cc2ccccc2)cc1` [Cmpd 89, 1-(5-[(4-methoxyphenyl)methyl]amino-3-(pyridin-2-yl)-1H-1,2,4-triazol-1-yl)-2-phenylethan-1-one] was under 100 nM. Take `COc1ccc(CNc2nc(-c3ccccn3)nn2C(=O)CC(C)C)cc1` [Cmpd 90, 1-(5-[(4-methoxyphenyl)methyl]amino-3-(pyridin-2-yl)-1H-1,2,4-triazol-1-yl)-3-methylbutan-1-one]: the IC50 is under 100 nM.

In turn, `COc1ccc(CNc2nc(-c3ccccn3)nn2C(=O)CCc2ccccc2)cc1` [Cmpd 91, 1-(5-[(4-methoxyphenyl)methyl]amino-3-(pyridin-2-yl)-1H-1,2,4-triazol-1-yl)-3-phenylpropan-1-one] showed an IC50 of 100 to 1000 nM. Consider `CCCC(=O)n1nc(-c2ccccn2)nc1NCc1ccc(OC)cc1` [Cmpd 92, 1-(5-[(4-methoxyphenyl)methyl]amino-3-(pyridin-2-yl)-1H-1,2,4-triazol-1-yl)butan-1-one], for which the IC50 is under 100 nM. Take `CCC(=O)n1nc(-c2ccccn2)nc1NCc1ccc(OC)cc1` [Cmpd 93, 1-(5-[(4-methoxyphenyl)methyl]amino-3-(pyridin-2-yl)-1H-1,2,4-triazol-1-yl)propan-1-one]: the half-inhibitory concentration (IC50) is under 100 nM.

In turn, `COc1ccc(CNc2nc(-c3cccnc3)nn2C(=O)C(C)(C)C)cc1` [Cmpd 94, 1-(5-[(4-methoxyphenyl)methyl]amino-3-(pyridin-3-yl)-1H-1,2,4-triazol-1-yl)-2,2-dimethylpropan-1-one] gave a half-maximal inhibitory concentration (IC50) of under 100 nM. Consider `COc1ccc(CNc2nc(-c3ccncc3)nn2C(=O)C(C)C)cc1` [Cmpd 95, 1-(5-[(4-methoxyphenyl)methyl]amino-3-(pyridin-4-yl)-1H-1,2,4-triazol-1-yl)-2-methylpropan-1-one], for which the IC50 is under 100 nM. `COc1ccc(CNc2nc(-c3ccncc3)nn2C(=O)Cc2ccccc2)cc1` [Cmpd 96, 1-(5-[(4-methoxyphenyl)methyl]amino-3-(pyridin-4-yl)-1H-1,2,4-triazol-1-yl)-2-phenylethan-1-one] showed an IC50 of under 100 nM.

For the compound `COc1ccc(CNc2nc(-c3ccncc3)nn2C(=O)CC(C)C)cc1` [Cmpd 97, 1-(5-[(4-methoxyphenyl)methyl]amino-3-(pyridin-4-yl)-1H-1,2,4-triazol-1-yl)-3-methylbutan-1-one], the IC50 is under 100 nM.

The compound `COc1ccc(CNc2nc(-c3ccncc3)nn2C(=O)CCc2ccccc2)cc1` [Cmpd 98, 1-(5-[(4-methoxyphenyl)methyl]amino-3-(pyridin-4-yl)-1H-1,2,4-triazol-1-yl)-3-phenylpropan-1-one] displayed an IC50 of over 1000 nM. Next, `CCCC(=O)n1nc(-c2ccncc2)nc1NCc1ccc(OC)cc1` [Cmpd 99, 1-(5-[(4-methoxyphenyl)methyl]amino-3-(pyridin-4-yl)-1H-1,2,4-triazol-1-yl)butan-1-one]: under 100 nM. The value for `CCC(=O)n1nc(-c2ccncc2)nc1NCc1ccc(OC)cc1` [Cmpd 100, 1-(5-[(4-methoxyphenyl)methyl]amino-3-(pyridin-4-yl)-1H-1,2,4-triazol-1-yl)propan-1-one] was 100 to 1000 nM; that for `O=C(c1cccc2c1OC(F)(F)O2)n1nc(-c2ccccc2)nc1NCc1ccc(F)cc1` [Cmpd 101, 1-[(2,2-difluoro-2H-1,3-benzodioxol-4-yl)carbonyl]-N-[(4-fluorophenyl)methyl]-3-phenyl-1H-1,2,4-triazol-5-amine] was over 1000 nM; that for `O=C(c1cccc2c1OCCO2)n1nc(-c2ccccc2)nc1NCc1ccc(F)cc1` [Cmpd 102, 1-[(2,3-dihydro-1,4-benzodioxin-5-yl)carbonyl]-N-[(4-fluorophenyl)methyl]-3-phenyl-1H-1,2,4-triazol-5-amine] was under 100 nM. Next, `COc1ccc(C(=O)n2nc(-c3ccccc3F)cc2NCc2ccccc2)c(N)c1` [Cmpd 103, 1-[(2-amino-4-methoxyphenyl)carbonyl]-N-benzyl-3-(2-fluorophenyl)-1H-pyrazol-5-amine]: over 1000 nM; `COc1ccc(C(=O)n2nc(-c3ccccn3)nc2NCc2ccccc2)c(N)c1` [Cmpd 104, 1-[(2-amino-4-methoxyphenyl)carbonyl]-N-benzyl-3-(pyridin-2-yl)-1H-1,2,4-triazol-5-amine]: under 100 nM. The compound `COc1ccc(C(=O)n2nc(-c3ccccn3)cc2NCc2ccccc2)c(N)c1` [Cmpd 105, 1-[(2-amino-4-methoxyphenyl)carbonyl]-N-benzyl-3-(pyridin-2-yl)-1H-pyrazol-5-amine] registered an IC50 of 100 to 1000 nM. The value for `Cc1ccc(C(=O)n2nc(-c3ccccc3F)cc2NCc2ccccc2)c(N)c1` [Cmpd 106, 1-[(2-amino-4-methylphenyl)carbonyl]-N-benzyl-3-(2-fluorophenyl)-1H-pyrazol-5-amine] was over 1000 nM. The value for `Cc1ccc(C(=O)n2nc(-c3ccccn3)nc2NCc2ccccc2)c(N)c1` [Cmpd 107, 1-[(2-amino-4-methylphenyl)carbonyl]-N-benzyl-3-(pyridin-2-yl)-1H-1,2,4-triazol-5-amine] was under 100 nM. The value for `Cc1ccc(C(=O)n2nc(-c3ccccn3)cc2NCc2ccccc2)c(N)c1` [Cmpd 108, 1-[(2-amino-4-methylphenyl)carbonyl]-N-benzyl-3-(pyridin-2-yl)-1H-pyrazol-5-amine] was 100 to 1000 nM; that for `Nc1ccccc1C(=O)n1nc(-c2ccccn2)nc1NCc1ccccc1` [Cmpd 109, 1-[(2-aminophenyl)carbonyl]-N-benzyl-3-(pyridin-2-yl)-1H-1,2,4-triazol-5-amine] was under 100 nM. `CSc1nc(-c2cccs2)nn1C(=O)c1ccccc1Cl` [Cmpd 110, 1-[(2-chlorophenyl)carbonyl]-5-(methylsulfanyl)-3-(thiophen-2-yl)-1H-1,2,4-triazole] came in with an IC50 of under 100 nM. Next, `O=C(c1ccccc1Cl)n1nc(-c2ccccn2)nc1NCc1ccc(F)cc1` [Cmpd 111, 1-[(2-chlorophenyl)carbonyl]-N-[(4-fluorophenyl)methyl]-3-(pyridin-2-yl)-1H-1,2,4-triazol-5-amine]: under 100 nM.

In turn, `O=C(c1ccccc1Cl)n1nc(-c2ccncc2)nc1NCc1ccc(F)cc1` [Cmpd 112, 1-[(2-chlorophenyl)carbonyl]-N-[(4-fluorophenyl)methyl]-3-(pyridin-4-yl)-1H-1,2,4-triazol-5-amine] came in with an IC50 of under 100 nM. Next, `O=C(c1ccccc1Cl)n1nc(-c2cccs2)nc1NCc1ccc(F)cc1` [Cmpd 113, 1-[(2-chlorophenyl)carbonyl]-N-[(4-fluorophenyl)methyl]-3-(thiophen-2-yl)-1H-1,2,4-triazol-5-amine]: under 100 nM; `O=C(c1ccccc1Cl)n1nc(-c2ccccc2)cc1NCc1ccc(F)cc1` [Cmpd 114, 1-[(2-chlorophenyl)carbonyl]-N-[(4-fluorophenyl)methyl]-3-phenyl-1H-pyrazol-5-amine]: over 1000 nM. The value for `COc1ccccc1C(=O)n1nc(-c2ccccn2)cc1NCc1cccs1` [Cmpd 116, 1-[(2-methoxyphenyl)carbonyl]-3-(pyridin-2-yl)-N-(thiophen-2-ylmethyl)-1H-pyrazol-5-amine] was 100 to 1000 nM. `COc1ccccc1C(=O)n1nc(-c2ccccn2)nc1NCc1ccsc1` [Cmpd 117, 1-[(2-methoxyphenyl)carbonyl]-3-(pyridin-2-yl)-N-(thiophen-3-ylmethyl)-1H-1,2,4-triazol-5-amine] yielded an IC50 of under 100 nM. The value for `COc1ccccc1C(=O)n1nc(-c2ccccn2)cc1NCc1ccsc1` [Cmpd 118, 1-[(2-methoxyphenyl)carbonyl]-3-(pyridin-2-yl)-N-(thiophen-3-ylmethyl)-1H-pyrazol-5-amine] was 100 to 1000 nM.

By IC50 is commonly meant the concentration that inhibits the measured activity by half. Low readings indicate inhibition by little substance, high ones a need for much substance.
